The test system of data set [1] is OGT. As to the kind of experiment: Western blot of OGT levels in treated COS-7 cells. The format is cell-based, African green monkey. The following applies: 50 μM, 24 h. Here is the method: Westernlectin blots: Samples were run on 10% SDS polyacrylamide gels and transferred onto nitrocellulose membranes (Biorad). Membranes were blocked for 1 h in PBS containing 0.1% Tween-20 (PBS-T) containing 1% (unless otherwise stated) bovine serum albumin (BSA), and probed with the appropriate primary antibody or lectin in 1% BSA in PBS-T overnight at 4° C. Blots were washed for 1 hr with PBS-T, and blocked for a further 30 min with 1% BSA in PBS-T at room temperature. They were then probed with the appropriate horseradish peroxidise (HRP)-conjugated secondary antibodyprobe in 1% BSA in PBS-T at room temperature for 1 h, followed by washing in PBS-T for 1 h. Blots were developed with SuperSignal West Pico Chemiluminescent Substrate (Pierce) and exposed to CL-XPosure film (Pierce). Densitometry was performed using ImageQuant 5.2 (Molecular Dynamics), and fits to the data were made using GRAFIT^41.
Antibodieslectins: O-GlcNAc levels were assessed primarily using CTD110.6 (Covance), but RL2 (Abcam) and HGAC85 (Abcam) were also tested. Actin was probed using JLA20 (Developmental Studies Hybridoma Bank). OGA levels were assessed using a polyclonal anti-OGA antibody which was a kind gift from Dr. Gerald Hart and OGT levels using H-300 (Santa Cruz Biotechnology). nup62 was probed using mAb 414 (Covance). […]
On the technique in general: In western blotting, separated proteins are transferred to a membrane and probed.

The test system of data set [2] is CHO cells. The experiment in a line: Cell proliferation growth curves over 5 days, CHO cells. The format is cell-based, Chinese hamster. The following applies: 50 μM. How it is done:
(A) Cell proliferation curves over the course of 5 days for CHO cells following no (circles), 50 μM Ac-GlcNAc (squares) or 50 μM Ac-5SGlcNAc (triangles) treatment. The error bars indicate the deviation from the mean for triplicate measurements. […] Upper panel, probed with anti-O-GlcNAc antibody (CTD110.6); lower panel, probed with anti-actin antibody. (B) Cell proliferation curves over the course of 5 days for EMEG heterozygous mouse embryonic fibroblast cells following no (circles), 50 μM Ac-GlcNAc (squares) or 50 μM Ac-5SGlcNAc (triangles) treatment. The error bars indicate the deviation from the mean for triplicate measurements. […] Upper panel, probed with anti-O-GlcNAc antibody (CTD110.6); lower panel, probed with anti-actin antibody. (C) Western blots of CHO cell lysates following no (C) or Ac-5SGlcNAc administration at 50 μM for 4 days. Probed with (from top to bottom) anti-Spl antibody, anti O-GlcNAc (CTD110.6) antibody and anti-actin antibody. Full blot of the anti-Sp 1 is shown in panel (d). […]
Cellular responses to Ac-5SGlcNAc (9) treatment and consequent decreases in O-GlcNAc levels were evaluated. […] We quantitatively evaluated cell proliferation and established growth curves over the course of 5 days in both CHO and EMEG32 heterozygous mouse embryonic fibroblast cells treated with 50 μM Ac-5SGlcNAc (9), 50 μM Ac-GlcNAc (G), or vehicle (FIGS. 5A-B).

For data set [3], the system named is UDP-sugar nucleotide pools in COS-7 cells. The experiment in a line: UDP-sugar pools extracted from treated COS-7 cells, capillary electrophoresis. The format is cell-based, African green monkey. How it is done:
Capillary electrophoresis (CE): CE was performed on a ProteomeLab PA800 (Beckman-Coulter) using fused silica capillaries of […]×44 cm (to detector). The running buffer was 40 mM Na2B4O7 (Sigma), pH 9.5, containing 1.0% (wv) polyethylene glycol (MW 20,000; Fluka) and filtered prior to use. The capillary was conditioned by washing with 1 N NaOH (2 min, 20 psi), 18 MΩ H2O (3 min, 20 psi) and running buffer (5 min, 40 psi). After injecting a short (15 nL) H2O plug, samples were electrostatically introduced and pre-concentrated at the anode by applying a potential of -0.5 kV for 10 s according to the field-amplified sample injection technique described by Chien and Burgi^39. Electrophoresis was carried out at a constant voltage of 30 kV and capillary temperature of 22° C. Electropherograms were derived by measuring the absorbance at 254 (+/−10) nm at a rate of 4 Hz. Peaks were integrated using 32 Karat 5.0 software (Beckman-Coulter) and all peaks were normalized to the GDP-Glc internal standard.
Extraction of nucleotide sugars from cell lysates: COS-7 cells, on 10 cm plates, were treated with 0, 50, 250 or 1000 μM Ac-5SGlcNAc for 24 h; each condition was performed in triplicate. Cells were washed gently with PBS prior to the addition of 1 mL PBS containing 10 mM EDTA. Cells were incubated at 37° C. for […], the cells scraped from the plate, and pelleted by centrifugation (1000 rpm, 10 min, 4° C.). Cell pellets were immediately lysed by the addition of 750 μL 75% (vv) ethanol (−20° C.) and sonicated using a W-375 ultrasonic processor (Heat Systems Ultrasonics, Inc.). Insoluble material was removed by centrifugation (14,000 rpm, 15 min, 4° C.) and the supernatant was snap frozen and lyophilized^44,45. The crude extract was spiked with GDP-Glc (200 pmol) as an internal standard, dissolved in 0.5 mL 18 MΩ H2O and nucleotide sugars extracted using Envi-Carb graphite solid-phase extraction cartridges (200 mg) (Supelco) as described by Räbinä et al^38. Briefly, Envi-Carb cartridges were conditioned with 80% (vv) CH3CN and 20% 0.1% (vv) TFA (3 mL), followed by 18 MΩ H2O (6 mL), before samples were applied. After passing the samples through the SPE cartridge, the cartridge was sequentially washed with 2 mL of each of 18 MΩ H2O, 25% (vv) CH3CN, and 50 mM triethylammonium acetate (TEAA), pH 7.0. Sugar nucleotides were eluted with 3×1 mL 25% CH3CN in 50 mM TEAA, pH 7.0, passed through a 0.22 μm filter (Millipore), lyophilized, and stored at −20° C. until analysis. Extracted sugar nucleotides were dissolved in 200 μL 18 MΩ H2O and an aliquot was diluted 1:4 prior to characterization by CE using a method adapted from Feng et al^46.

On to `CC(=O)NC1C(OC(C)=O)SC(COC(C)=O)C(OC(C)=O)C1OC(C)=O` [Compound 9, N-Acetyl-1,3,4,6-tetra-O-acetyl-α-D-5-thio-glucosamine], for which the OGT levels entry in data set [1] is reported as “increase in OGT levels”. The growth rate result in data set [2] was “indistinguishable from those of Ac-GlcNAc (G) and vehicle treated cells”. Also, in data set [3] (50 μM), the “UDP-GlcNAc levels relative to basal” value is on record as “more than 60 % of basal levels”. Besides, in data set [3] (COS-7, 0-1000 μM, 24 h), the “UDP-Glc and UDP-Gal levels in cells” value was “uridine diphosphoglucose and uridine diphosphogalactose levels are unaffected”; the “UDP-GlcNAc levels in cells” value is “small decrease in UDP-GlcNAc levels”; the “amount of UDP-5SGlcNAc in cells” value is “dose dependent increase in the amount of UDP-5SGlcNAc in cells”.

These data come from patent US20150259371A1, “METHODS AND COMPOUNDS FOR INHIBITING GLYCOSYLTRANSFERASES” (SIMON FRASER UNIVERSITY, priority 2010, published 2015).
